In the NIST ThermoML archive (doi:10.1016/j.jct.2016.11.009):

Details: Gas, Buoyancy - hydrostatic balance with magnetic suspension - one sinker

N#N [nitrogen]
Details	mass density [kg/m3]
304.03 K, 17990 kPa	190.64
304.1 K, 16877 kPa	180.004
304.11 K, 6796 kPa	75.316
304.11 K, 12948 kPa	140.851
304.12 K, 5782 kPa	64.151
304.13 K, 8812 kPa	97.213
304.14 K, 4379 kPa	48.633
304.15 K, 2926 kPa	32.502
304.15 K, 7820 kPa	86.489
304.15 K, 11901 kPa	129.994
304.15 K, 15984 kPa	171.278
304.16 K, 10861 kPa	119.075
304.16 K, 14927 kPa	160.84
304.17 K, 13944 kPa	150.964
304.23 K, 9837 kPa	108.209
304.55 K, 2607 kPa	28.885
304.66 K, 3534 kPa	39.15
304.66 K, 7983 kPa	88.017
304.69 K, 7136 kPa	78.822
304.73 K, 16296 kPa	173.901
304.75 K, 8937 kPa	98.306
304.75 K, 12245 kPa	133.207
304.77 K, 4983 kPa	55.145
304.77 K, 14270 kPa	153.864
304.78 K, 10988 kPa	120.097
304.8 K, 3016 kPa	33.394
304.82 K, 5885 kPa	65.065
304.83 K, 8012 kPa	88.26
304.83 K, 10043 kPa	110.076
304.88 K, 3013 kPa	33.353
304.88 K, 18305 kPa	192.939
304.89 K, 6933 kPa	76.521
305.04 K, 4986 kPa	55.132
305.17 K, 4987 kPa	55.12
